Experiments:
[1] = tested on: sperm adhering or attaching to the egg; test: Equine-field observation of conception after D-Mannose; assay type: in vivo; conditions: D-Mannose in sufficient quantities at the appropriate times
Text: In the equine field, Mr. […] Accordingly, the invention finds application in all fields of mammal animal husbandry to prevent unwanted cross-breeding, and to also prevent unwanted unproductive periods that are caused by undesired breeding.

[2] = tested on: bacteria; conditions: as described in the referenced earlier patents and applications of Dale Benedict; cited from earlier work

## O=C[C@@H](O)[C@@H](O)[C@H](O)[C@H](O)CO [D-Mannose]
[1]
  likelihood of conception: reduces the likelihood of conception
[2]
  adherence of bacteria to membranes or cell walls: inhibits the adherence of bacteria to membranes or cell walls
